Reference: patent US11040963B2 (priority 2017, dated 2021)
pIC50: −log10 of the molar value.

Key:
[1] = in vitro; details: dog, Cytotoxicity (pCC50) MDCK
[2] = system: H1N1 A/California/07/09; assay: microbe, parasite or virus in culture; type: cell-based, influenza A virus; details: Influenza A virus, H1N1, MDCK, 96 h, read-out: Virus neutralization assay (VNA), pEC50 H1N1 A/California/07/09 (converted)
[3] = target: HA H5 A/Vietnam/1203/04 (Influenza A virus (A/Vietnam/1203/2004(H5N1)), UniProt Q5EP31); assay: biochemical; details: Competition binding (AlphaLISA), pIC50 H5 A/Vietnam/1203/04
[4] = system: H5N1 A/Vietnam/1203/04; assay: microbe, parasite or virus in culture; type: cell-based, influenza A virus; details: Influenza A virus, H5N1, MDCK, 96 h, read-out: Virus neutralization assay (VNA), pEC50 H5N1 A/Vietnam/1203/04, MDCK cells, 96 h, CPE by ATPlite (converted); average of repeats
[5] = system: H1N1 A/New Caledonia/20/99; assay: microbe, parasite or virus in culture; type: cell-based, influenza A virus; details: Influenza A virus, H1N1, MDCK, 96 h, read-out: Virus neutralization assay (VNA), pEC50 H1N1 A/New Caledonia/20/99 (converted)
[6] = target: HA H1 A/New Caledonia/20/99 (Influenza A virus (A/New Caledonia/20/1999(H1N1)), UniProt Q6WG00); assay: biochemical; details: Competition binding (AlphaLISA), pIC50 H1 A/New Caledonia/20/99
[7] = target: HA H1 A/California/07/09 (Influenza A virus (A/California/07/2009(H1N1)), UniProt C3W5X2); assay: biochemical; details: Competition binding (AlphaLISA), pIC50 H1 A/California/07/09

SMILES	CC50 [1]	EC50 [2]	pIC50 [3]	EC50 [4]	EC50 [5]	pIC50 [6]	pIC50 [7]
COC(=O)C(c1ccccc1)N1CCN(C(=O)c2ccnc(-c3nc4cc(C(F)(F)F)ccc4o3)c2)CC1 (stereo not shown) [Example 119]	10000 nM	1000 nM	5.70	25100 nM	1580 nM	6.80	6.80
COC(=O)C(c1ccccc1)N1CCN(C(=O)c2cccc(-c3nc4ccc(OC)cc4s3)n2)CC1 (stereo not shown) [Example 78]	> 50100 nM	1260 nM	4.60	50100 nM	631 nM	6.50	6.20
COC(=O)C(c1ccccc1)N1CCN(C(=O)c2cccc(-c3nc4cccnc4o3)c2)CC1 (stereo not shown) [Example 50]	> 50100 nM	794 nM	5.40	31600 nM	316 nM	7.20	7.20
CNC(=O)c1cnc(-c2cccc(C(=O)N3CCN(C(C(=O)OC)c4ccccc4)CC3)c2)s1 (stereo not shown) [Example 64]	> 50100 nM	1000 nM	5.70	25100 nM	501 nM	7.10	7.10
COC(=O)C(c1ccccc1)N1CCN(C(=O)c2cncc(-c3nc4ccc(OC)cc4s3)c2)CC1 (stereo not shown) [Example 54]	50100 nM	1260 nM	6.40	6310 nM	398 nM	7.30	7.00
COc1ccc2nc(-c3cccc(C(=O)N4CCN(C(c5ccccc5)c5noc(C)n5)CC4)c3)sc2c1 (stereo not shown) [Example 98]	12600 nM	1260 nM	5.60	12600 nM	1000 nM	6.90	6.60
Cc1nnc(C(c2ccccc2)N2CCN(C(=O)c3cccc(-c4nc5cc(Cl)ccc5o4)c3)CC2)o1 (stereo not shown) [Example 125]	25100 nM	1580 nM	4.90	50100 nM	2000 nM	6.80	6.80
COC(=O)C(c1ccccc1)N1CCN(C(=O)c2ccc(-c3nc4ccc(OC)cc4s3)o2)CC1 (stereo not shown) [Example 80]	> 50100 nM	1580 nM	6.00	> 50100 nM	631 nM	6.60	6.50
O=C(c1cccc(-c2nc3cc(C(F)(F)F)ccc3o2)c1)N1CCN(C(c2ccccc2)c2nnc(C3(O)CCC3)o2)CC1 (stereo not shown) [Example 57]	39800 nM	251 nM	5.60	20000 nM	501 nM	7.10	7.30
CC(=O)Nc1ccc2oc(-c3ccnc(C(=O)N4CCN(C(c5ccccc5)c5n[nH]c(C)n5)CC4)c3)nc2c1 (stereo not shown) [Example 5]	> 50100 nM	15.8 nM	6.30	1260 nM	6.31 nM	7.80	7.60
O=C(c1cccc(-c2nc3cc(C(F)(F)F)ccc3o2)c1)N1CCN(C(c2ccccc2)c2nnc(C3CC3)o2)CC1 (stereo not shown) [Example 127]	> 50100 nM	2510 nM	5.10	20000 nM	2000 nM	6.60	7.10
O=C(c1cc(-c2nc3cc(C(F)(F)F)ccc3o2)ccn1)N1CCN(C(c2ccccc2)c2nnc(C3CC3)o2)CC1 (stereo not shown) [Example 34]	39800 nM	126 nM	5.90	12600 nM	251 nM	7.20	7.50
COc1ccc2nc(-c3cccc(C(=O)N4CCN(C(CO)c5ccccc5)CC4)c3)sc2c1 (stereo not shown) [Example 82]	5010 nM	2000 nM	6.00	12600 nM	631 nM	6.90	6.70
Cc1nnc([C@@H](c2ccccc2)N2CCN(C(=O)c3cccc(-c4nc5cccc(C)c5o4)c3)CC2)o1 [Example 77]	3980 nM	1260 nM	5.00	> 50100 nM	631 nM	6.70	6.60
COCC(c1ccccc1)N1CCN(C(=O)c2cccc(-c3nc4ccc(OC)cc4s3)c2)CC1 (stereo not shown) [Example 99]	> 50100 nM	1580 nM	5.90	> 50100 nM	1000 nM	6.80	6.60
COc1ccc2nc(-c3cccc(C(=O)N4CCN(C(c5ccccc5)c5nnn(C)n5)CC4)c3)sc2c1 (stereo not shown) [Example 72]	50100 nM	794 nM	5.80	39800 nM	631 nM	6.90	6.70
COc1ccc2nc(-c3cccc(C(=O)N4CCN(C(c5ccccc5)c5nnc(C)o5)CC4)c3)sc2c1 (stereo not shown) [Example 71]	> 50100 nM	794 nM	6.00	7940 nM	631 nM	7.00	7.00
COC(=O)[C@@H](c1ccccc1)N1CCN(C(=O)c2cccc(-c3nc4ccccc4s3)c2)CC1 [Example 33]	39800 nM	501 nM	6.40	7940 nM	158 nM	7.50	7.30
COC(=O)[C@@H](c1ccccc1)N1CCN(C(=O)c2cccc(-c3nc4cc(C(F)(F)F)ccc4o3)c2)CC1 [Example 26]	> 50100 nM	158 nM	6.30	7940 nM	158 nM	7.70	7.60
Cc1nnc(C(c2ccccc2)N2CCN(C(=O)c3cc(-c4nc5cc(C(F)(F)F)ccc5o4)ccn3)CC2)o1 (stereo not shown) [Example 40]	12600 nM	158 nM	5.90	10000 nM	251 nM	7.30	7.50
Cc1nnc(C(c2ccccc2)N2CCN(C(=O)c3cccc(-c4nc5cc(O)ccc5o4)c3)CC2)o1 (stereo not shown) [Example 44]	39800 nM	398 nM	5.80	12600 nM	316 nM	7.30	7.30
COC(=O)[C@@H](c1ccccc1)N1CCN(C(=O)c2cccc(-c3nc4cc(OC)ccc4o3)c2)CC1 [Example 8]	> 50100 nM	39.8 nM	6.70	1260 nM	31.6 nM	8.40	8.20
COC(=O)[C@H](c1ccccc1)N1CCN(C(=O)c2cccc(-c3nc4cc(OC)ccc4o3)c2)CC1 [Example 100]	> 50100 nM	2000 nM	4.60	25100 nM	1000 nM	6.50	6.30
COC(=O)C(c1ccccc1)N1CCN(C(=O)c2cccc(-c3nc4cc(OC5CC5)ccc4o3)c2)CC1 (stereo not shown) [Example 1, Methyl 2-(4-(3-(5-cyclopropoxybenzo[d]oxazol-2-yl)benzoyl)piperazin-1-yl)-2-phenylacetate]	> 50100 nM	2.51 nM	7.20	200 nM	2.51 nM	9.20	8.90
CNc1ccc2oc(-c3cccc(C(=O)N4CCN(C(C(=O)OC)c5ccccc5)CC4)c3)nc2c1 (stereo not shown) [Example 9]	10000 nM	63.1 nM	6.60	1580 nM	39.8 nM	8.40	8.20
